{"source": "paper PMC7504725", "about": "“Automated Synthesis of Fluorine-18 Labeled CXCR4 Ligand via the Conjugation with Nicotinic Acid N-Hydroxysuccinimide Ester (6-[^18F]SFPy)” (Molecules, 2020)", "key": {"CXCR4 positive tumors": {"test_system": "CXCR4 positive tumors", "settings": "PET, xenograft mouse model, RBC binding blocked with non-radioactive 4-FBz-T140, ref [31]; cited from earlier work", "from_the_text": "(§1) However, due to the complex and time-consuming radiolabeling procedure, they developed another analog, (Al[^18F]NOTA-T140), using the Al-F me ..."}, "red blood cells (RBCs)": {"test_system": "red blood cells (RBCs)", "settings": "blocked by non-radioactive standard 4-FBz-T140 peptide; ref [31]; cited from earlier work", "from_the_text": "as §1"}, "CXCR4": {"test_system": "CXCR4", "set-up": "method as in earlier work", "settings": "previously reported, ref [24],[31],[48],[49],[50],[51] (collective), cited from earlier work"}, "HIV": {"test_system": "HIV", "settings": "4-fluorobenzoyl group introduced on T140-based pharmacophore; ref [30]; cited from earlier work", "from_the_text": "Numerous truncated peptide analogs that mimic the function of CXCL12 have been reported. Tamamura et al. described the synthesis of novel 14-amino acid peptide inhibitors (T134, T140) based on the structure of their previously reported 18-amino acid peptide, T22, for inhibitory activity against HIV-1 entry. […] However, due to the complex and time-consuming radiolabeling procedure, they developed another analog, (Al[^18F]NOTA-T140), using the Al-F me ..."}, "[1]": {"assay": "Hydrolysis of 6-[^18F]SFPy to 6-[^18F]fluoronicotinic acid (HPLC)", "type": "physicochemical", "settings": "room temperature, 4h post radiolabeling; HPLC method B (Vydac C-4), radio detector", "description": "Figure 2 HPLC analysis (method B) of 6-[^18F]SFPy (A) Crude reaction mixture; (B) Crude reaction mixture co-injected with the non-radioactive standard; (C) Pure; (D) Pure co-injected with the non-radioactive standard; (E) After 4h of labeling at room temperature co-injected with the non-radioactive standard, 6-fluoronicotinic acid. Solid line, in-line radio detector; dotted line, UV detector at 254 nm. Retention time (min): 6-[^18F]SFPy, 4.0; compound 4, 4.1; 6-[^18F]fluoronicotinic acid, 2.8.\nMethod B (HPLC conditions for analysis): Vydac C-4 (2) column (4.6 × 150 mm, 5 µ), mobile phase: 15–22% B in 10 min; B = acetonitrile (0.1% TFA), A = Water (0.1% TFA), flow rate of 1 mL/min; tR = ~8 min."}}, "note": "Like-named read-outs stand apart in the source and are kept apart here."}
{"molecule": "4-[^18F]fluorobenzoyl-TN14003 [4-[^18F]FBz-T140]", "values": [{"measurement": "tumor-to-background ratios (in words)", "setting": "CXCR4 positive tumors", "value": "high tumor-to-background ratios"}, {"measurement": "binding to red blood cells (in words)", "setting": "red blood cells (RBCs)", "value": "elevated binding"}]}
{"molecule": "4-fluorobenzoyl-TN14003 [4-FBz-T140]", "values": [{"measurement": "IC50", "setting": "CXCR4; first of two values printed for this analog", "value": 0.99, "unit": "nM"}, {"measurement": "IC50", "setting": "CXCR4; second of two values printed for this analog", "value": 1.75, "unit": "nM"}, {"measurement": "anti-HIV activity (in words)", "setting": "HIV", "value": "enhancement of anti-HIV activity"}]}
{"molecule": "O=C(ON1C(=O)CCC1=O)c1ccc([18F])nc1", "note": "[6-[^18F]SFPy]", "values": [{"measurement": "conversion to 6-[^18F]fluoronicotinic acid (slow hydrolysis)", "setting": "[1]", "value": 15, "unit": "%"}]}
